In article PMC3480435, “Identification, Expression and Activity Analyses of Five Novel Duck Beta-Defensins” (PLoS ONE, 2012):

Experiments:
[1] = tested on: 12 bacteria (four Gram-positive and eight Gram-negative strains); conditions: colony counting, 10-100 µg/mL in PBS, 3 h preincubation then 12-18 h; % of CFU of unexposed bacteria; mean of three independent experiments, three replicates each; Fig. 3
Experimental: The antimicrobial activities of both rAvBD and sAvBD were determined by colony counting assay. Briefly, a 10 µL of diluted bacterial culture (diluted 1000-fold in the appropriate medium) was treated with 250 µL of rAvBD or sAvBD (0 to 100 µg/mL in PBS) in polypropylene microtiter plates and preincubated for 3 h at conditions suited to the investigated strain; 100 µL of minimal medium was added after 3 h and the plates were incubated for 12–18 h further. Then, the sample was rediluted 100-to-10^6-fold in minimal medium, transferred to TSA plates and colonies were counted after 24 h of incubation. Bactericidal activity was calculated as a percentage of CFU of bacteria not exposed to antimicrobial peptides but subjected to the same experimental conditions. Results from the antimicrobial assay represent the mean of the three independent experiments, with three replicates per experiment.

[2] = tested on: DHV-1 strain Du/CH/LBJ/090809; conditions: DHV-1 serially diluted, treated with equal volume of 300 µg/mL protein in PBS, 37°C 60 min; 11-day-old SPF duck embryos, observed 7 days; three independent experiments, five replicates
Experimental: Briefly, the DHV-1 (10^8 median embryo infectious doses, EID50) was serially diluted 10-fold and treated with equal volumes of GST or rAvBDs (300 µg/mL in PBS) at 37°C for 60 min. The mixture was inoculated into 11-day-old specific pathogen free (SPF) duck embryos, with 200 µL administered per duck. The inoculated duck embryos were incubated at 37°C and observed for 7 days. Mortality was recorded every 8 h. […] All antiviral activity assays were performed in three independent experiments, with five replicates per experiment.

glutathione-S-transferase [GST]
bactericidal activity against all of the bacterial strains investigated [1]: no bactericidal activity
survival time of duck embryos inoculated with treated DHV [2]: little effect
